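Cultured in 96-well plates, cells were exposed to test compound for 48 hours across five concentrations. Here, GI50 denotes the concentration required for 50% inhibition of growth.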 Calls of active or inactive are those of the source. Cut-off read from the data, not from the text of the source: active = GI50 up to about 1.1 µM and inactive = higher.
How the values were obtained:
Experiment in all cases: DTP human tumour cell line panel, 48 h
RPMI-8226 = test system: RPMI-8226
ACHN = test system: ACHN
HL-60 = test system: HL-60
UACC-257 = test system: UACC-257
UO-31 = test system: UO-31
MDA-N = test system: MDA-N
A498 = test system: A498
RXF 393 = test system: RXF 393
SK-MEL-5 = test system: SK-MEL-5
KM12 = test system: KM12
K562 = test system: K562
NCI-H226 = test system: NCI-H226
OVCAR-3 = test system: OVCAR-3
A549 = test system: A549
NCI-H23 = test system: NCI-H23
OVCAR-4 = test system: OVCAR-4
SN12C = test system: SN12C

SMILES | GI50 (RPMI-8226) | GI50 (ACHN) | GI50 (HL-60) | GI50 (UACC-257) | GI50 (UO-31) | GI50 (MDA-N) | GI50 (A498) | GI50 (RXF 393) | GI50 (SK-MEL-5) | GI50 (KM12) | GI50 (K562) | GI50 (NCI-H226) | GI50 (OVCAR-3) | GI50 (A549) | GI50 (NCI-H23) | GI50 (OVCAR-4) | GI50 (SN12C)
Clc1ccc(C2=CC(c3ccccc3)N3C(=N[C@H]4CCCC[C@@H]43)N2)cc1 (stereo partly specified) | 2.31 µM (inactive) | 5.24 µM (inactive) | 2.82 µM (inactive) | 12.9 µM (inactive) | 10.8 µM (inactive) | 6.05 µM (inactive) | 10.4 µM (inactive) | 2.47 µM (inactive) | 1.71 µM (inactive) | 2.07 µM (inactive) | 2.09 µM (inactive) | 8.85 µM (inactive) | 6.4 µM (inactive) | 5.47 µM (inactive) | 7.82 µM (inactive) | 5.61 µM (inactive) | 
O=c1cc(C(F)(F)F)c2cc3c(cc2o1)NCCC3 | > 100 µM (inactive) | > 100 µM (inactive) | > 100 µM (inactive) | > 100 µM (inactive) | 61.1 µM (inactive) | > 100 µM (inactive) | > 100 µM (inactive) | < 0.01 µM (active) | 78.3 µM (inactive) | > 100 µM (inactive) | > 100 µM (inactive) | > 100 µM (inactive) | > 100 µM (inactive) | > 100 µM (inactive) | > 100 µM (inactive) | 70.6 µM (inactive) | > 100 µM (inactive)
CC(C)(CN)SCc1ccccc1 | > 100 µM (inactive) | > 100 µM (inactive) | > 100 µM (inactive) | 28.7 µM (inactive) | > 100 µM (inactive) | > 100 µM (inactive) | > 100 µM (inactive) | > 100 µM (inactive) | > 100 µM (inactive) | > 100 µM (inactive) | > 100 µM (inactive) | > 100 µM (inactive) | > 100 µM (inactive) | > 100 µM (inactive) |  | > 100 µM (inactive) | > 100 µM (inactive)
O=C(c1no[n+]([O-])c1C(=O)c1csc2ccccc12)c1csc2ccccc12 | 0.521 µM (active) | 4.54 µM (inactive) | 0.0246 µM (active) | 4.92 µM (inactive) | 0.505 µM (active) | 8.69 µM (inactive) | 15 µM (inactive) | 7.19 µM (inactive) | 12.8 µM (inactive) | 6.95 µM (inactive) | 1.52 µM (inactive) | 12.9 µM (inactive) | 1.86 µM (inactive) | 10 µM (inactive) | 14.1 µM (inactive) | 2.86 µM (inactive) | 4.37 µM (inactive)
C[N+]1(CCC[N+]2(C)CC3C4C=CC(CC4)C3C2)CCOCC1 (stereo unspecified) | > 100 µM (inactive) | > 100 µM (inactive) | > 100 µM (inactive) | > 100 µM (inactive) | > 100 µM (inactive) | > 100 µM (inactive) | > 100 µM (inactive) | > 100 µM (inactive) | 18.5 µM (inactive) | > 100 µM (inactive) | > 100 µM (inactive) | > 100 µM (inactive) | > 100 µM (inactive) | > 100 µM (inactive) | > 100 µM (inactive) | > 100 µM (inactive) | > 100 µM (inactive)
COc1ccc2c(c1)-c1nc(=S)n(CCCN(C)C)c3ccc([N+](=O)[O-])c(c13)N2 | 0.693 µM (active) | 0.296 µM (active) | 0.0269 µM (active) | 1.22 µM (inactive) | 0.49 µM (active) | 0.815 µM (active) | 4.09 µM (inactive) | 0.471 µM (active) | 1.14 µM (inactive) | 0.543 µM (active) | 0.454 µM (active) | 1.36 µM (inactive) | 1.59 µM (inactive) | 0.363 µM (active) | 1.08 µM (active) | 1.13 µM (inactive) | 0.582 µM (active)
CCN(CC)CCCNc1nncc2cc3c([nH]c4ccc(OC)cc43)c(C)c12 | 6.84 µM (inactive) | 8.26 µM (inactive) | < 0.01 µM (active) | 17.6 µM (inactive) | 11.5 µM (inactive) | 10.4 µM (inactive) | 16.4 µM (inactive) | 5.81 µM (inactive) | 14.7 µM (inactive) | 4.2 µM (inactive) | 3.34 µM (inactive) | 7.41 µM (inactive) | 7.05 µM (inactive) | 9.82 µM (inactive) | 10.7 µM (inactive) | 3.27 µM (inactive) | 6.12 µM (inactive)
Cc1cn(S(=O)(=O)c2ccccc2)c2c(OCc3ccccc3)cc(NS(C)(=O)=O)cc12 | 13.2 µM (inactive) | 20.4 µM (inactive) | 4.52 µM (inactive) | 10.1 µM (inactive) | 17.7 µM (inactive) | 10.7 µM (inactive) | 8.15 µM (inactive) | 14.6 µM (inactive) | 4.35 µM (inactive) | 10.9 µM (inactive) | 20.1 µM (inactive) | 16.1 µM (inactive) | 10.6 µM (inactive) | 9.82 µM (inactive) | 16 µM (inactive) | 6.35 µM (inactive) | 13.7 µM (inactive)
O=P(O)(O)C(NCC(O)CN1CCOCC1)P(=O)(O)O (stereo unspecified) | > 100 µM (inactive) | > 100 µM (inactive) | > 100 µM (inactive) | > 100 µM (inactive) | > 100 µM (inactive) | > 100 µM (inactive) | > 100 µM (inactive) | > 100 µM (inactive) | > 100 µM (inactive) | > 100 µM (inactive) | > 100 µM (inactive) | > 100 µM (inactive) | > 100 µM (inactive) | > 100 µM (inactive) | > 100 µM (inactive) |  | 
COc1ccc(/C=N/N=C(\N)NO)c(O)c1 | > 10 µM (inactive) | 5.96 µM (inactive) | 4.39 µM (inactive) | 6.52 µM (inactive) | > 10 µM (inactive) | > 10 µM (inactive) | 8.77 µM (inactive) | > 10 µM (inactive) | 3.53 µM (inactive) | 4.57 µM (inactive) | 4.41 µM (inactive) | 3.98 µM (inactive) | 5.51 µM (inactive) | > 10 µM (inactive) | > 10 µM (inactive) | > 10 µM (inactive) | 8.53 µM (inactive)
Cc1cc(OCc2nnc3n2N=C(c2cc(F)c(Cl)cc2Cl)/C(=C/c2ccc(Cl)cc2)S3)ccc1Cl | 11.7 µM (inactive) | 33.5 µM (inactive) | 1.91 µM (inactive) | 38.5 µM (inactive) | 27.5 µM (inactive) | 32.4 µM (inactive) | 24.2 µM (inactive) | 17 µM (inactive) | 17.9 µM (inactive) | 22.9 µM (inactive) | 8.38 µM (inactive) | 46 µM (inactive) | 30.5 µM (inactive) |  | 27.4 µM (inactive) | 19.5 µM (inactive) | 
CC1=NN(c2nc(N)nc(CBr)n2)C(C)(C)C1 | 1.13 µM (inactive) | 3.56 µM (inactive) | 0.975 µM (active) | 11.9 µM (inactive) | 0.384 µM (active) | 11.5 µM (inactive) | 12.9 µM (inactive) | 2.78 µM (inactive) | 11.3 µM (inactive) | 10.7 µM (inactive) | 2.02 µM (inactive) | 2.61 µM (inactive) | 3.42 µM (inactive) | 12.6 µM (inactive) | 9.86 µM (inactive) | 7.4 µM (inactive) | 5.22 µM (inactive)
COc1cccc(C2CC(C)(N3CCCC3)Oc3cc4c(cc32)OCO4)c1O (stereo unspecified) | 21.3 µM (inactive) | 36.7 µM (inactive) | 15.4 µM (inactive) | 35.4 µM (inactive) | 32.5 µM (inactive) | 2.54 µM (inactive) | 28.3 µM (inactive) | 26.7 µM (inactive) | 12.4 µM (inactive) | 22 µM (inactive) | 9.31 µM (inactive) | 19.1 µM (inactive) | 20 µM (inactive) | 31.9 µM (inactive) | 27.4 µM (inactive) | 48.1 µM (inactive) | 25.6 µM (inactive)
C=CO/N=[N+](\[O-])N(CC)CC | > 100 µM (inactive) | > 100 µM (inactive) | > 100 µM (inactive) | > 100 µM (inactive) |  | > 100 µM (inactive) | > 100 µM (inactive) | > 100 µM (inactive) | > 100 µM (inactive) | > 100 µM (inactive) | > 100 µM (inactive) | > 100 µM (inactive) | > 100 µM (inactive) | > 100 µM (inactive) | > 100 µM (inactive) | > 100 µM (inactive) | > 100 µM (inactive)
OCCCNCc1ccccn1 | > 100 µM (inactive) | > 100 µM (inactive) | 68.1 µM (inactive) | > 100 µM (inactive) | > 100 µM (inactive) | > 100 µM (inactive) | > 100 µM (inactive) | > 100 µM (inactive) | > 100 µM (inactive) | > 100 µM (inactive) | > 100 µM (inactive) | > 100 µM (inactive) | > 100 µM (inactive) | > 100 µM (inactive) | > 100 µM (inactive) | > 100 µM (inactive) | > 100 µM (inactive)
CC1(C)OC(=O)C(C#N)=C1C[n+]1ccccc1 | > 10 µM (inactive) | > 10 µM (inactive) | > 10 µM (inactive) | > 10 µM (inactive) | > 10 µM (inactive) | > 10 µM (inactive) | > 10 µM (inactive) | > 10 µM (inactive) | > 10 µM (inactive) | > 10 µM (inactive) | > 10 µM (inactive) | > 10 µM (inactive) | > 10 µM (inactive) |  | > 10 µM (inactive) | > 10 µM (inactive) | > 10 µM (inactive)
CC(C)(C)OC(=O)Nc1nnc(S(N)(=O)=O)s1 | > 100 µM (inactive) | > 100 µM (inactive) | > 100 µM (inactive) | > 100 µM (inactive) | > 100 µM (inactive) | > 100 µM (inactive) | > 100 µM (inactive) | > 100 µM (inactive) | > 100 µM (inactive) | > 100 µM (inactive) | > 100 µM (inactive) | > 100 µM (inactive) | > 100 µM (inactive) | > 100 µM (inactive) | > 100 µM (inactive) | > 100 µM (inactive) | > 100 µM (inactive)
